In brackets after ≈: the same amount, converted by molar mass.
Tests used:
[1] = target: T1, Serine/threonine-protein kinase B-raf (Homo sapiens, UniProt P15056, V600E); assay: Inhibition of His6X-tagged human B-raf V600E mutant expressed in baculovirus infected insect cells coexpressing […] using [gamma33P]ATP after 60 mins by scintillation counting
[2] = target: T1, Serine/threonine-protein kinase B-raf; assay: Inhibition of B-raf V600E mutant-mediated Erk phosphorylation in human MALM-3M cells by fluorometric analysis; type: cell-based
[3] = Thermodynamic solubility of the compound at 0.5 mg/ml after 24 hrs by shake flask method at pH 1.2; type: physicochemical; conditions: buffer, read-out: Therm_solubility
[4] = Dissociation constant, pKa of the compound at acidic pH; type: physicochemical
[5] = tested on: Mus musculus; assay: Toxicity in NCr nude mouse xenografted with human COLO205 cells expressing B-raf V600E mutant assessed as adverse effects; type: organism-based, COLO 205; conditions: in vivo
[6] = Dissociation constant, pKa of the compound at basic pH; type: physicochemical
[7] = Thermodynamic solubility of the compound at 0.5 mg/ml after 24 hrs by shake flask method at pH 6.5; type: physicochemical; conditions: buffer, read-out: Therm_solubility
[8] = Clearance in mouse at 2.5 mg/kg, iv; type: ADME, organism-based; design: dose 2.5 mg/kg, route intravenous; conditions: in vivo
[9] = Volume of distribution at steady state in mouse at 2.5 mg/kg, iv; type: ADME, organism-based; design: dose 2.5 mg/kg, route intravenous; conditions: in vivo, read-out: Vdss
[10] = AUC in mouse at 30 mg/kg, po dosed in 0.5% methylcellulose/0.2% Tween 80/99.3% water; type: ADME, organism-based; design: dose 30 mg/kg, route oral; conditions: in vivo
[11] = Oral bioavailability in mouse at 30 mg/kg; type: ADME, organism-based; conditions: in vivo
[12] = Plasma protein binding in mouse; type: ADME, cell-free; conditions: read-out: PPB (converted)
[13] = Lipophilicity, log P of the compound; type: physicochemical; conditions: octanol/water

T1 sequence (P15056 2-766 V600E limits assumed): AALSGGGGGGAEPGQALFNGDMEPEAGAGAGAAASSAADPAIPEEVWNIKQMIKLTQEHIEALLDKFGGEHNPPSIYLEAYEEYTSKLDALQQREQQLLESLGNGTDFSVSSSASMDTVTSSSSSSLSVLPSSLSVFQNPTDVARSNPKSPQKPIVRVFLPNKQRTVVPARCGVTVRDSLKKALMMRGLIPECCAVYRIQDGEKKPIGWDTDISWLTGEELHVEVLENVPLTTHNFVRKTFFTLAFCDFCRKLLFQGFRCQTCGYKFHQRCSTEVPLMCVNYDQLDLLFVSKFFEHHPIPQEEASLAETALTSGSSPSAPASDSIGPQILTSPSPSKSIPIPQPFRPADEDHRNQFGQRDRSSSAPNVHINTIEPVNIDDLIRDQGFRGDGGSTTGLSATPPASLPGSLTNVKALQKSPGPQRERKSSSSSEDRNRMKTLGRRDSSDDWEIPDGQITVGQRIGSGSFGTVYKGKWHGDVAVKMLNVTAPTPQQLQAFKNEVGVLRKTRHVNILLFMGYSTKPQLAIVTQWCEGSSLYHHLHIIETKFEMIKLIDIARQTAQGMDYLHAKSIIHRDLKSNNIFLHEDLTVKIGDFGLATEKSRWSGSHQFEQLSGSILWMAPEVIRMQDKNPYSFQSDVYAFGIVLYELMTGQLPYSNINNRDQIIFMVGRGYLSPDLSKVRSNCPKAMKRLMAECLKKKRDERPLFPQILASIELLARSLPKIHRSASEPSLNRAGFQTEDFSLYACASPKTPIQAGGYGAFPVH

Q: With `CCCS(=O)(=O)Nc1ccc(F)c(NC(=O)Nc2ncnc3[nH]ncc23)c1F` as the molecule, how does the IC50 [1] read?
A: 5.6 nM

Q: What about the IC50 [2] of the same molecule?
A: 88 nM

Q: What about the solubility thermodynamic at 24 h [3] of the same molecule?
A: 7 µg/mL (≈ 17 µM)

Q: What does the source list for `CCCS(=O)(=O)Nc1ccc(F)c(NC(=O)Nc2ncnc3[nH]nc(OC)c23)c1F`?
A: IC50 [1]: 1.6 nM; EC50 [2]: 2.6 nM; pKa [4]: 1.8; solubility thermodynamic at 24 h [3]: 49 µg/mL (≈ 111 µM)

Q: For `CCCS(=O)(=O)Nc1ccc(Cl)c(NC(=O)c2csc3c(N)ncnc23)c1F`, which IC50 [1] is on record?
A: 0.9 nM

Q: What about the IC50 [2] of the same molecule?
A: 19 nM

Q: Which results are given for `CCCS(=O)(=O)Nc1ccc(F)c(NC(=O)c2csc3c(N)ncnc23)c1F`?
A: Activity [5]: Non-toxic; IC50 [1]: 2.5 nM; IC50 [2]: 15 nM; pKa [6]: 3.6; solubility thermodynamic at 24 h [3]: > 1000 µg/mL; solubility thermodynamic at 24 h [7]: 5 µg/mL (≈ 11.7 µM); clearance [8]: 1 mL/min/kg; Vd [9]: 0.2 L/kg; AUC [10]: 874 µM·h; bioavailability [11]: 100%; fraction unbound [12]: 0.016; logP [13]: 2.7
